According to US8192962B2, “Processes for detecting toxic substances” (Daikin Industries, Ltd., priority 2001, dated 2012):

Test system: Metabolism protein genes
Assay: DNA chip mRNA expression in yeast, metabolism protein genes (Table 7)
Assay type: cell-based, Saccharomyces cerevisiae S288C
Procedure, shortened: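 Whole-genome yeast DNA chip hybridization (65° C., >12 h) of Cy-labeled cDNA from S288C cells exposed 2 h at 25° C. to a sub-lethal toxicant dose in YPD; value is intensity relative to chemical-free control.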

CN(C)C(=S)SSC(=S)N(C)C [(10), Tetramethylthiuram disulfide]
level of expressed mRNA in the presence/in the absence of chemical substance (yeast gene YJR143C): 0.3
The level of expressed mRNA in the presence of chemical substance/The level of expressed mRNA in the absence of chemical substance (yeast gene YJR148W): 3.0
The level of expressed mRNA in the presence of chemical substance/The level of expressed mRNA in the absence of chemical substance (yeast gene YJR155W): 18.8
The level of expressed mRNA in the presence of chemical substance/The level of expressed mRNA in the absence of chemical substance (yeast gene YKL001C): 3.4
The level of expressed mRNA in the presence of chemical substance/The level of expressed mRNA in the absence of chemical substance (yeast gene YKL035W): 1.2
level of expressed mRNA in the presence/in the absence of chemical substance (yeast gene YKL060C): 0.8
The level of expressed mRNA in the presence of chemical substance/The level of expressed mRNA in the absence of chemical substance (yeast gene YKL091C): 3.2
The level of expressed mRNA in the presence of chemical substance/The level of expressed mRNA in the absence of chemical substance (yeast gene YKL104C): 1.8
level of expressed mRNA in the presence/in the absence of chemical substance (yeast gene YKL148C): 1.7
The level of expressed mRNA in the presence of chemical substance/The level of expressed mRNA in the absence of chemical substance (yeast gene YKL152C): 1.5
level of expressed mRNA in the presence/in the absence of chemical substance (yeast gene YKL157W): 1.9
The level of expressed mRNA in the presence of chemical substance/The level of expressed mRNA in the absence of chemical substance (yeast gene YKL213C): 2.1
The level of expressed mRNA in the presence of chemical substance/The level of expressed mRNA in the absence of chemical substance (yeast gene YKL215C): 1.9
level of expressed mRNA in the presence/in the absence of chemical substance (yeast gene YKR034W): 0.6
The level of expressed mRNA in the presence of chemical substance/The level of expressed mRNA in the absence of chemical substance (yeast gene YKR039W): 2.0
The level of expressed mRNA in the presence of chemical substance/The level of expressed mRNA in the absence of chemical substance (yeast gene YLL058W): 3.6
level of expressed mRNA in the presence/in the absence of chemical substance (yeast gene YLR006C): 1.1
level of expressed mRNA in the presence/in the absence of chemical substance (yeast gene YLR044C): 1.2
level of expressed mRNA in the presence/in the absence of chemical substance (yeast gene YLR056W): 0.5
level of expressed mRNA in the presence/in the absence of chemical substance (yeast gene YLR058C): 0.1
level of expressed mRNA in the presence/in the absence of chemical substance (yeast gene YLR081W): 2.2
level of expressed mRNA in the presence/in the absence of chemical substance (yeast gene YLR089C): 0.8
The level of expressed mRNA in the presence of chemical substance/The level of expressed mRNA in the absence of chemical substance (yeast gene YLR180W): 0.9
The level of expressed mRNA in the presence of chemical substance/The level of expressed mRNA in the absence of chemical substance (yeast gene YLR273C): 2.4
level of expressed mRNA in the presence/in the absence of chemical substance (yeast gene YLR284C): 0.9
The level of expressed mRNA in the presence of chemical substance/The level of expressed mRNA in the absence of chemical substance (yeast gene YLR299W): 2.3
The level of expressed mRNA in the presence of chemical substance/The level of expressed mRNA in the absence of chemical substance (yeast gene YLR300W): 0.5
level of expressed mRNA in the presence/in the absence of chemical substance (yeast gene YLR304C): 2.2
The level of expressed mRNA in the presence of chemical substance/The level of expressed mRNA in the absence of chemical substance (yeast gene YLR307W): 0.7
The level of expressed mRNA in the presence of chemical substance/The level of expressed mRNA in the absence of chemical substance (yeast gene YLR348C): 1.3
level of expressed mRNA in the presence/in the absence of chemical substance (yeast gene YLR354C): 0.9
level of expressed mRNA in the presence/in the absence of chemical substance (yeast gene YLR372W): 0.1
level of expressed mRNA in the presence/in the absence of chemical substance (yeast gene YML022W): 0.6
The level of expressed mRNA in the presence of chemical substance/The level of expressed mRNA in the absence of chemical substance (yeast gene YML054C): 1.8
The level of expressed mRNA in the presence of chemical substance/The level of expressed mRNA in the absence of chemical substance (yeast gene YML070W): 3.9
The level of expressed mRNA in the presence of chemical substance/The level of expressed mRNA in the absence of chemical substance (yeast gene YML100W): 1.4
The level of expressed mRNA in the presence of chemical substance/The level of expressed mRNA in the absence of chemical substance (yeast gene YMR008C): 0.6
level of expressed mRNA in the presence/in the absence of chemical substance (yeast gene YMR011W): 0.7
level of expressed mRNA in the presence/in the absence of chemical substance (yeast gene YMR015C): 0.3
The level of expressed mRNA in the presence of chemical substance/The level of expressed mRNA in the absence of chemical substance (yeast gene YMR020W): 2.9
level of expressed mRNA in the presence/in the absence of chemical substance (yeast gene YMR083W): 1.1
The level of expressed mRNA in the presence of chemical substance/The level of expressed mRNA in the absence of chemical substance (yeast gene YMR105C): 2.9
The level of expressed mRNA in the presence of chemical substance/The level of expressed mRNA in the absence of chemical substance (yeast gene YMR189W): 0.9
level of expressed mRNA in the presence/in the absence of chemical substance (yeast gene YMR205C): 0.8
level of expressed mRNA in the presence/in the absence of chemical substance (yeast gene YMR261C): 1.3
The level of expressed mRNA in the presence of chemical substance/The level of expressed mRNA in the absence of chemical substance (yeast gene YMR271C): 4.4
The level of expressed mRNA in the presence of chemical substance/The level of expressed mRNA in the absence of chemical substance (yeast gene YMR296C): 0.6
level of expressed mRNA in the presence/in the absence of chemical substance (yeast gene YMR323W): 1.3
The level of expressed mRNA in the presence of chemical substance/The level of expressed mRNA in the absence of chemical substance (yeast gene YNL012W): 3.2
level of expressed mRNA in the presence/in the absence of chemical substance (yeast gene YNL025C): 1.8
The level of expressed mRNA in the presence of chemical substance/The level of expressed mRNA in the absence of chemical substance (yeast gene YNL037C): 3.2
The level of expressed mRNA in the presence of chemical substance/The level of expressed mRNA in the absence of chemical substance (yeast gene YNL045W): 1.1
The level of expressed mRNA in the presence of chemical substance/The level of expressed mRNA in the absence of chemical substance (yeast gene YNL104C): 2.0
The level of expressed mRNA in the presence of chemical substance/The level of expressed mRNA in the absence of chemical substance (yeast gene YNL106C): 1.4
The level of expressed mRNA in the presence of chemical substance/The level of expressed mRNA in the absence of chemical substance (yeast gene YNL169C): 1.1
level of expressed mRNA in the presence/in the absence of chemical substance (yeast gene YNL192W): 1.8
The level of expressed mRNA in the presence of chemical substance/The level of expressed mRNA in the absence of chemical substance (yeast gene YNL231C): 1.3
The level of expressed mRNA in the presence of chemical substance/The level of expressed mRNA in the absence of chemical substance (yeast gene YNL322C): 0.8
The level of expressed mRNA in the presence of chemical substance/The level of expressed mRNA in the absence of chemical substance (yeast gene YNL331C): 36.3
The level of expressed mRNA in the presence of chemical substance/The level of expressed mRNA in the absence of chemical substance (yeast gene YNL332W): 2.1
The level of expressed mRNA in the presence of chemical substance/The level of expressed mRNA in the absence of chemical substance (yeast gene YNR002C): 1.6
The level of expressed mRNA in the presence of chemical substance/The level of expressed mRNA in the absence of chemical substance (yeast gene YNR019W): 1.9
The level of expressed mRNA in the presence of chemical substance/The level of expressed mRNA in the absence of chemical substance (yeast gene YNR033W): 4.2
The level of expressed mRNA in the presence of chemical substance/The level of expressed mRNA in the absence of chemical substance (yeast gene YNR059W): 1.4
The level of expressed mRNA in the presence of chemical substance/The level of expressed mRNA in the absence of chemical substance (yeast gene YOL058W): 15.7
level of expressed mRNA in the presence/in the absence of chemical substance (yeast gene YOL086C): 1.2
level of expressed mRNA in the presence/in the absence of chemical substance (yeast gene YOL108C): 0.9
level of expressed mRNA in the presence/in the absence of chemical substance (yeast gene YOL116W): 1.8
The level of expressed mRNA in the presence of chemical substance/The level of expressed mRNA in the absence of chemical substance (yeast gene YOL126C): 2.4
The level of expressed mRNA in the presence of chemical substance/The level of expressed mRNA in the absence of chemical substance (yeast gene YOL143C): 1.0
The level of expressed mRNA in the presence of chemical substance/The level of expressed mRNA in the absence of chemical substance (yeast gene YOL153C): 3.2
level of expressed mRNA in the presence/in the absence of chemical substance (yeast gene YOL156W): 2.1
The level of expressed mRNA in the presence of chemical substance/The level of expressed mRNA in the absence of chemical substance (yeast gene YOL165C): 23.3
level of expressed mRNA in the presence/in the absence of chemical substance (yeast gene YOR002W): 0.9
level of expressed mRNA in the presence/in the absence of chemical substance (yeast gene YOR085W): 0.6
The level of expressed mRNA in the presence of chemical substance/The level of expressed mRNA in the absence of chemical substance (yeast gene YOR099W): 0.7
level of expressed mRNA in the presence/in the absence of chemical substance (yeast gene YOR103C): 0.9
level of expressed mRNA in the presence/in the absence of chemical substance (yeast gene YOR108W): 1.1
level of expressed mRNA in the presence/in the absence of chemical substance (yeast gene YOR128C): 0.4
The level of expressed mRNA in the presence of chemical substance/The level of expressed mRNA in the absence of chemical substance (yeast gene YOR130C): 1.7
The level of expressed mRNA in the presence of chemical substance/The level of expressed mRNA in the absence of chemical substance (yeast gene YOR136W): 3.4
level of expressed mRNA in the presence/in the absence of chemical substance (yeast gene YOR142W): 1.5
level of expressed mRNA in the presence/in the absence of chemical substance (yeast gene YOR176W): 0.5
level of expressed mRNA in the presence/in the absence of chemical substance (yeast gene YOR178C): 1.7
The level of expressed mRNA in the presence of chemical substance/The level of expressed mRNA in the absence of chemical substance (yeast gene YOR221C): 1.7
The level of expressed mRNA in the presence of chemical substance/The level of expressed mRNA in the absence of chemical substance (yeast gene YOR226C): 5.9
level of expressed mRNA in the presence/in the absence of chemical substance (yeast gene YOR251C): 0.8
The level of expressed mRNA in the presence of chemical substance/The level of expressed mRNA in the absence of chemical substance (yeast gene YOR336W): 1.5
The level of expressed mRNA in the presence of chemical substance/The level of expressed mRNA in the absence of chemical substance (yeast gene YOR347C): 0.9
level of expressed mRNA in the presence/in the absence of chemical substance (yeast gene YOR348C): 0.4
The level of expressed mRNA in the presence of chemical substance/The level of expressed mRNA in the absence of chemical substance (yeast gene YPL017C): 6.7
level of expressed mRNA in the presence/in the absence of chemical substance (yeast gene YPL028W): 0.8
level of expressed mRNA in the presence/in the absence of chemical substance (yeast gene YPL057C): 1.4
level of expressed mRNA in the presence/in the absence of chemical substance (yeast gene YPL135W): 2.8
level of expressed mRNA in the presence/in the absence of chemical substance (yeast gene YPL148C): 1.5
The level of expressed mRNA in the presence of chemical substance/The level of expressed mRNA in the absence of chemical substance (yeast gene YPR026W): 3.1
level of expressed mRNA in the presence/in the absence of chemical substance (yeast gene YPR113W): 0.8
level of expressed mRNA in the presence/in the absence of chemical substance (yeast gene YPR165W): 0.7
The level of expressed mRNA in the presence of chemical substance/The level of expressed mRNA in the absence of chemical substance (yeast gene YPR167C): 9.0
level of expressed mRNA in the presence/in the absence of chemical substance (yeast gene YPR183W): 0.6
